Laboratory results: US7001921B1, “Cell adhesion inhibitors” (Biogen Idec MA Inc., priority 1995, dated 2006)

Target: T1, VLA4 (Homo sapiens, UniProt P05556+P13612)
T1 construct: endogenous in cells; host or cells: Ramos cells
Assay: Inhibition of VLA4-dependent adhesion to BSA-CS1 (labelled Ramos cells)
Type: cell-based
Conditions: binding of BCECF-AM labelled Ramos cells to CS1 peptide-coated wells, 2 mM MnCl2, 30 minutes at room temperature; IC50 range
Description: For example, the cell adhesion inhibitory activity of these compounds may be measured by determining the concentration of inhibitor required to block the binding of VLA-4-expressing cells to fibronectin- or CS1-coated plates. In this assay microtiter wells are coated with either fibronectin (containing the CS-1 sequence) or CS-1. If CS-1 is used, it must be conjugated to a carrier protein, such as bovine serum albumin, in order to bind to the wells. Once the wells are coated, varying concentrations of the test compound are then added together with appropriately labelled, VLA-4-expressing cells. Alternatively, the test compound may be added first and allowed to incubate with the coated wells prior to the addition of the cells. The cells are allowed to incubate in the wells for at least 30 minutes. Following incubation, the wells are emptied and washed. Inhibition of binding is measured by quantitating the fluorescence or radioactivity bound to the plate for each of the various concentrations of test compound, as well as for controls containing no test compound.
VLA-4-expressing cells that may be utilized in this assay include Ramos cells, Jurkat cells, A375 melanoma cells, as well as human peripheral blood lymophocytes (PBLs). The cells used in this assay may be fluorescently or radioactively labelled.
This assay was used to assess the potency of VLA4-directed inhibitory compounds of this invention.
We dissolved BSA-SMCC (Pierce Chemical, Rockford, Ill.; Catalog # 77115) in H2O at a concentration of 10 mg/mL. [SEQ ID NO:4]: […](“Cys-Tyr-CS1 peptide”), which we synthesized by conventional solid phase chemistry and purified by HPLC, was dissolved in 10 mM HEPES pH 5, 50 mM NaCl and 0.1 mM EDTA also at a concentration of 10 mg/mL. We then mixed 500 μL of BSA-SMCC, 250 μL of Cys-Tyr-CS1 peptide and 75 μL of […] and allowed the conjugation reaction to proceed for 30 minutes. We stopped the reaction by adding 1 μL of beta-mercaptoethanol. Samples were analyzed for cross-linking by SDS-PAGE. This reaction produced multiple molecules of the Cys-Tyr-CS1 peptide conjugate to each BSA molecule.
We coated the wells of a Linbro titertek polystyrene 96-well flat bottom plate (Flow Laboratories, Maclean, Va.; catalog #76-231-05) with 100 μL of the above-described BSA-CS1 solution diluted to 1 μg/mL in 0.05 M NaHCO3 (15 mM NaHCO3, 35 mM Na2CO3) pH 9.2. Some wells were not coated with CS1 in order to assess non-specific cell binding (NSB). The plate was then incubated overnight at 4° C.
Following this incubation, the contents of the wells were removed by inverting and blotting the plate. All of the wells were then blocked with 100 μL of 1% BSA in PBS, 0.02% NaN3, for a minimum of one hour at room temperature.
3. Preparation of Fluorescently Labelled Ramos Cells Ramos cells are grown, maintained and labelled in RPMI 1640 culture medium containing 1% BSA. Just prior to running the assay, we added 2′,7′-bis-(2-carboxyethyl)5 (and -6) carboxyfluorescein acetoxymethyl ester (“BCECF-AM”; Molecular Probes Inc., Eugene, Oreg.; catalog #B-1150) to a final concentration of 2 μM to a culture of Ramos cells (4×10^6 cells/mL). We incubated the cells for 20 minutes at 37° C.
Following labelling, the cells were washed twice in assay buffer (24 mM TRIS, 137 mM NaCl, 2.7 mM KCl, pH 7.4, containing 0.1% BSA and 2 mM glucose) to remove any cations originating from the culture medium. The cells were then resuspended in assay buffer to 4×10^6 cells/mL and 2 mM MnCl2 was added to upregulate VLA4 on the surface of the cells.
Immediately prior to running the assay, we removed the BSA blocking solution from the 96-well plates and washed the wells with 100 μL of assay buffer. We then added to each well 25 μL of test cell adhesion inhibitory compound at 2× the final concentration and 25 μL of the labelled Ramos cells. Final concentrations were selected across a range of anticipated IC50s, usually between 0.01 nM–10 μM. […]

T1 sequence (P13612 34-1032): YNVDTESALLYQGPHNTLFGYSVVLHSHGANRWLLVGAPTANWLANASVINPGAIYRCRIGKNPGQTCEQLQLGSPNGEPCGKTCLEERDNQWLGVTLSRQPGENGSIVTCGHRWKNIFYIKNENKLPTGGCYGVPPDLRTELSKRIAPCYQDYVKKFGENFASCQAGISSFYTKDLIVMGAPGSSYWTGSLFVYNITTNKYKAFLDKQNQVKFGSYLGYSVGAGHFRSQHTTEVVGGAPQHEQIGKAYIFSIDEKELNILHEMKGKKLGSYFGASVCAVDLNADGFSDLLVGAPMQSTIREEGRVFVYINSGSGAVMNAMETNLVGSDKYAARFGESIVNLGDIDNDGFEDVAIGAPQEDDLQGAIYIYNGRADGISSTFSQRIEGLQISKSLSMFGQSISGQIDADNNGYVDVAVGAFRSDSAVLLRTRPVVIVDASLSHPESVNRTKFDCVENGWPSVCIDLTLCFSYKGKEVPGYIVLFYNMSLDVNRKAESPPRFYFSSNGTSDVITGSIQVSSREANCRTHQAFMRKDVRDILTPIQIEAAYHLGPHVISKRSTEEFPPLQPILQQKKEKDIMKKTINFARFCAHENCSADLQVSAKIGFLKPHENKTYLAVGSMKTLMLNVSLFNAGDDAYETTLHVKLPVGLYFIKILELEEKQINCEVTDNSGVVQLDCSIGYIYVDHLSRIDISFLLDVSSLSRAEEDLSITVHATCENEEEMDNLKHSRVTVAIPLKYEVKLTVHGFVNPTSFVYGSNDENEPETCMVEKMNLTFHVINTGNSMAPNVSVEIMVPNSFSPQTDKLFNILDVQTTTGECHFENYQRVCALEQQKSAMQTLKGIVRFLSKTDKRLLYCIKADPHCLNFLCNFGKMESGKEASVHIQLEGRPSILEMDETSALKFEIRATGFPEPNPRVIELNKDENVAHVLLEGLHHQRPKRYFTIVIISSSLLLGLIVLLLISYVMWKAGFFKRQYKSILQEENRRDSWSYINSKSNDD
T1 sequence (P05556 21-798): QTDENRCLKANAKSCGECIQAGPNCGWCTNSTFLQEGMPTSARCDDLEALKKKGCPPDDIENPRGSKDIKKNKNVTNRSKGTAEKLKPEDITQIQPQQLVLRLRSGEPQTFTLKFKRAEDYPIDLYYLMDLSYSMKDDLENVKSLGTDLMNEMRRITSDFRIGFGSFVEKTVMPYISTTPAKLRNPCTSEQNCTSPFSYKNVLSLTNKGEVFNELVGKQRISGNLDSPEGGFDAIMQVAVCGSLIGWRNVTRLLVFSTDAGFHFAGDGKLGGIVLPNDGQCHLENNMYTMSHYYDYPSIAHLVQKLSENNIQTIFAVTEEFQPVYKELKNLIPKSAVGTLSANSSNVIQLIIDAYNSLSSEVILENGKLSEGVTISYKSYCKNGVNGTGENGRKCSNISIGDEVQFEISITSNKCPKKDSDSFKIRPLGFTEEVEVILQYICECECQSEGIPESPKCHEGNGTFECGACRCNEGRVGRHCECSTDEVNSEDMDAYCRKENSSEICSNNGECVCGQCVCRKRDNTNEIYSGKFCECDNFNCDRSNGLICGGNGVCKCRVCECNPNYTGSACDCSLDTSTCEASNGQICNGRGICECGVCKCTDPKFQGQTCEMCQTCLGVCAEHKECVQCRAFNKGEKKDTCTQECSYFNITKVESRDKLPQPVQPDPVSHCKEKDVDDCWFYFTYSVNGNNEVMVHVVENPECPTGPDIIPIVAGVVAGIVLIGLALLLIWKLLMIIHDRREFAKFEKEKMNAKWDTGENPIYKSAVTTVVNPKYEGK

| SMILES | IC50 [µM] |
| --- | --- |
| CC(C)CC(NC(=O)Cc1ccccc1)C(=O)NC(CC(=O)O)c1ccccc1 (stereo not shown) [compound 1081] | 0.05 to 10 |
| CC(C)CC(NC(=O)CCCc1ccccc1)C(=O)NC(CC(=O)O)c1ccccc1 (stereo not shown) [compound 1082] | > 10 |
| CC(C)CC(NC(=O)OCc1ccccc1)C(=O)NC(CC(=O)O)c1ccccc1 (stereo not shown) [compound 1085] | > 10 |
| CC(C)CC(NC(=O)Nc1ccccc1)C(=O)NC(CC(=O)O)c1ccccc1 (stereo not shown) [compound 1086] | 0.05 to 10 |
| CC(C)CC(C(=O)NC(CC(=O)O)c1ccccc1)N(C)C(=O)CCc1ccc(O)cc1 (stereo not shown) [compound 1087] | > 10 |
| COc1ccc(C(CC(=O)O)NC(=O)C(CC(C)C)NC(=O)Cc2ccc(NC(=O)Nc3ccccc3)cc2)cc1 (stereo not shown) [compound 1088] | < 0.05 |
| COc1ccc(C(CC(=O)O)NC(=O)C(CCSC)NC(=O)Cc2ccc(NC(=O)Nc3ccccc3)cc2)cc1 (stereo not shown) [compound 1089] | < 0.05 |
| CC(C)CC(NC(=O)Cc1ccc(O)cc1)C(=O)NC(CC(=O)O)c1ccccc1 (stereo not shown) [compound 1091] | 0.05 to 10 |
| COc1ccc(CC(=O)NC(CC(C)C)C(=O)NC(CC(=O)O)c2ccccc2)cc1 (stereo not shown) [compound 1092] | > 10 |
| CC(C)CC(NC(=O)Cc1ccc([N+](=O)[O-])cc1)C(=O)NC(CC(=O)O)c1ccccc1 (stereo not shown) [compound 1093] | > 10 |
| CCCCCCC(=O)NC(CC(C)C)C(=O)NC(CC(=O)O)c1ccccc1 (stereo not shown) [compound 1094] | > 10 |
| CC(C)CC(NC(=O)Cc1ccccc1O)C(=O)NC(CC(=O)O)c1ccccc1 (stereo not shown) [compound 1096] | > 10 |
| CC(C)CC(NC(=O)Cc1cccc(O)c1)C(=O)NC(CC(=O)O)c1ccccc1 (stereo not shown) [compound 1097] | 0.05 to 10 |
| CC(C)CC(NC(=O)Cc1ccc(O)c(O)c1)C(=O)NC(CC(=O)O)c1ccccc1 (stereo not shown) [compound 1098] | > 10 |
| COc1cc(CC(=O)NC(CC(C)C)C(=O)NC(CC(=O)O)c2ccccc2)c(Br)cc1O (stereo not shown) [compound 1100] | 0.05 to 10 |
| CC(C)CC(NC(=O)Cc1ccc(NC(=O)OCc2ccccc2)cc1)C(=O)NC(CC(=O)O)c1ccccc1 (stereo not shown) [compound 1101] | > 10 |
| CC(C)CC(NC(=O)Cc1ccc(N)cc1)C(=O)NC(CC(=O)O)c1ccccc1 (stereo not shown) [compound 1103] | > 10 |
| CC(C)CC(NC(=O)Cc1ccc(NS(=O)(=O)c2ccccc2)cc1)C(=O)NC(CC(=O)O)c1ccccc1 (stereo not shown) [compound 1104] | 0.05 to 10 |

The remaining lines, values ahead:

| IC50 [µM] | SMILES |
| --- | --- |
| 0.05 to 10 | CC(C)CC(NC(=O)Cc1ccc(NC(=O)c2ccccc2)cc1)C(=O)NC(CC(=O)O)c1ccccc1 (stereo not shown) [compound 1105] |
| > 10 | CC(C)CC(NC(=O)CCCCCNC(=O)Nc1ccccc1)C(=O)NC(CC(=O)O)c1ccccc1 (stereo not shown) [compound 1106] |
| > 10 | CC(C)CC(NC(=O)CCCCCNC(=O)NC(C)(C)C)C(=O)NC(CC(=O)O)c1ccccc1 (stereo not shown) [compound 1107] |
| > 10 | CC(C)CC(NC(=O)Nc1ccc(N)cc1)C(=O)NC(CC(=O)O)c1ccccc1 (stereo not shown) [compound 1109] |
| 0.05 to 10 | CC(C)CC(NC(=O)Nc1ccc(NC(=O)Nc2ccccc2)cc1)C(=O)NC(CC(=O)O)c1ccccc1 (stereo not shown) [compound 1110] |
| > 10 | COc1cc(CC(=O)NC(CC(C)C)C(=O)NC(CC(=O)O)c2ccccc2)cc(OC)c1O (stereo not shown) [compound 1111] |
| > 10 | CC(C)CC(NC(=O)Cc1ccc(O)c([N+](=O)[O-])c1)C(=O)NC(CC(=O)O)c1ccccc1 (stereo not shown) [compound 1112] |
| > 10 | CC(C)CC(NC(=O)Cc1cccc([N+](=O)[O-])c1)C(=O)NC(CC(=O)O)c1ccccc1 (stereo not shown) [compound 1113] |
| > 10 | CC(C)CC(C(=O)NC(CC(=O)O)c1ccccc1)N(C)C(=O)Cc1ccccc1 (stereo not shown) [compound 1114] |
| 0.05 to 10 | CC(C)CC(NC(=O)Cc1ccccc1)C(=O)NC(CC(=O)O)c1ccc(Cl)cc1 (stereo not shown) [compound 1115] |
| > 10 | COC(C)C(NC(=O)Cc1ccccc1)C(=O)NC(CC(=O)O)c1ccccc1 (stereo not shown) [compound 1117] |
| > 10 | COc1ccc(CC(NC(=O)Cc2ccccc2)C(=O)NC(CC(=O)O)c2ccccc2)cc1 (stereo not shown) [compound 1122] |
| > 10 | O=C(O)CC(NC(=O)C(CCc1ccccc1)NC(=O)Cc1ccccc1)c1ccccc1 (stereo not shown) [compound 1123] |
